Measured values: ChEMBL document CHEMBL1201862, “PubChem BioAssay data set” (2004)
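Results reflect a 48-hour exposure of cells in 96-well plates to compound at five concentrations. GI50 marks 50% less growth.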 Active and inactive are the calls of the source. Cut-off read from the data, not from the text of the source: active = GI50 up to about 1.1 µM and inactive = higher.

Columns and labels:
Test in all cases: growth of human tumour cells (NCI), 48 h
MCF7 = test system: MCF7
Malme-3M = test system: Malme-3M
HCT-116 = test system: HCT-116
SK-MEL-2 = test system: SK-MEL-2
MDA-N = test system: MDA-N
OVCAR-4 = test system: OVCAR-4
DU-145 = test system: DU-145
SF-268 = test system: SF-268
RPMI-8226 = test system: RPMI-8226
NCI/ADR-RES = test system: NCI/ADR-RES
OVCAR-5 = test system: OVCAR-5
KM12 = test system: KM12
MDA-MB-435 = test system: MDA-MB-435
786-0 = test system: 786-0
CCRF-CEM = test system: CCRF-CEM
SK-MEL-28 = test system: SK-MEL-28
NCI-H226 = test system: NCI-H226
PC-3 = test system: PC-3
NCI-H460 = test system: NCI-H460
HOP-62 = test system: HOP-62
NCI-H522 = test system: NCI-H522
HOP-92 = test system: HOP-92
U-251 = test system: U-251
A549 = test system: A549
SW-620 = test system: SW-620
ACHN = test system: ACHN
UO-31 = test system: UO-31
SNB-75 = test system: SNB-75
T47D = test system: T47D
UACC-257 = test system: UACC-257
A498 = test system: A498
OVCAR-8 = test system: OVCAR-8
LOX IMVI = test system: LOX IMVI
SF-295 = test system: SF-295
IGROV-1 = test system: IGROV-1
RXF 393 = test system: RXF 393
M14 = test system: M14
SK-OV-3 = test system: SK-OV-3
MOLT-4 = test system: MOLT-4
SNB-19 = test system: SNB-19
HL-60 = test system: HL-60
CAKI-1 = test system: CAKI-1
OVCAR-3 = test system: OVCAR-3
SF-539 = test system: SF-539
Hs-578T = test system: Hs-578T
SK-MEL-5 = test system: SK-MEL-5
MDA-MB-231 = test system: MDA-MB-231
NCI-H23 = test system: NCI-H23
EKVX = test system: EKVX
K562 = test system: K562
SN12C = test system: SN12C
HT-29 = test system: HT-29
TK-10 = test system: TK-10
COLO 205 = test system: COLO 205
HCT-15 = test system: HCT-15
UACC-62 = test system: UACC-62
HCC 2998 = test system: HCC 2998
BT-549 = test system: BT-549

SMILES: S=C(/N=c1\sc(NCc2ccccc2)nc2sc3c(c12)CCN(N1CCc2c(sc4nc(NCc5ccccc5)s/c(=N\C(=S)NCc5ccccc5)c24)C1)C3)NCc1ccccc1
- GI50 (MCF7): 15.8 µM (inactive)
- GI50 (Malme-3M): 70.3 µM (inactive)
- GI50 (HCT-116): 7.74 µM (inactive)
- GI50 (SK-MEL-2): 58.3 µM (inactive)
- GI50 (MDA-N): 42.5 µM (inactive)
- GI50 (OVCAR-4): 36.7 µM (inactive)
- GI50 (DU-145): 45 µM (inactive)
- GI50 (SF-268): 27.4 µM (inactive)
- GI50 (RPMI-8226): 14.6 µM (inactive)
- GI50 (NCI/ADR-RES): 37.8 µM (inactive)
- GI50 (OVCAR-5): 45 µM (inactive)
- GI50 (KM12): 38 µM (inactive)
- GI50 (MDA-MB-435): 42.9 µM (inactive)
- GI50 (786-0): 9.64 µM (inactive)
- GI50 (CCRF-CEM): 2.56 µM (inactive)
- GI50 (SK-MEL-28): 63.4 µM (inactive)
- GI50 (NCI-H226): 49.9 µM (inactive)
- GI50 (PC-3): 17 µM (inactive)
- GI50 (NCI-H460): 54.8 µM (inactive)
- GI50 (HOP-62): 27.5 µM (inactive)
- GI50 (NCI-H522): 37.7 µM (inactive)
- GI50 (HOP-92): 39.4 µM (inactive)
- GI50 (U-251): 10.5 µM (inactive)
- GI50 (A549): 27.4 µM (inactive)
- GI50 (SW-620): 22.3 µM (inactive)
- GI50 (ACHN): 29.1 µM (inactive)
- GI50 (UO-31): 15.4 µM (inactive)
- GI50 (SNB-75): 17.4 µM (inactive)
- GI50 (T47D): 21.2 µM (inactive)
- GI50 (UACC-257): 21.5 µM (inactive)
- GI50 (A498): 52 µM (inactive)
- GI50 (OVCAR-8): 20.9 µM (inactive)
- GI50 (LOX IMVI): 15 µM (inactive)
- GI50 (SF-295): 59.3 µM (inactive)
- GI50 (IGROV-1): 28 µM (inactive)
- GI50 (RXF 393): 36.1 µM (inactive)
- GI50 (M14): 42.9 µM (inactive)
- GI50 (SK-OV-3): 53.2 µM (inactive)
- GI50 (MOLT-4): 14.3 µM (inactive)
- GI50 (SNB-19): 28.2 µM (inactive)
- GI50 (HL-60): 25.4 µM (inactive)
- GI50 (CAKI-1): 21.9 µM (inactive)
- GI50 (OVCAR-3): 20.1 µM (inactive)
- GI50 (SF-539): 23.4 µM (inactive)
- GI50 (Hs-578T): 54.3 µM (inactive)
- GI50 (SK-MEL-5): 87.5 µM (inactive)
- GI50 (MDA-MB-231): 8.32 µM (inactive)
- GI50 (NCI-H23): 24.6 µM (inactive)
- GI50 (EKVX): 19.9 µM (inactive)
- GI50 (K562): 17.4 µM (inactive)
- GI50 (SN12C): 16.2 µM (inactive)
- GI50 (HT-29): 22.6 µM (inactive)
- GI50 (TK-10): 48.9 µM (inactive)
- GI50 (COLO 205): 32.1 µM (inactive)
- GI50 (HCT-15): 22.3 µM
- GI50 (UACC-62): 38.6 µM (inactive)
- GI50 (HCC 2998): 44.7 µM (inactive)
- GI50 (BT-549): 62.2 µM (inactive)

SMILES: C[C@]12CC[C@@H]3c4ccc(O)cc4CC[C@H]3[C@@H]1CC[C@@H]2OC(=O)CCc1ccccc1
- GI50 (MCF7): 17.5 µM (inactive)
- GI50 (Malme-3M): 17.6 µM (inactive)
- GI50 (HCT-116): 20.3 µM (inactive)
- GI50 (SK-MEL-2): 15.2 µM (inactive)
- GI50 (MDA-N): 7.46 µM (inactive)
- GI50 (OVCAR-4): 17.5 µM (inactive)
- GI50 (DU-145): 19.5 µM (inactive)
- GI50 (SF-268): 17.8 µM (inactive)
- GI50 (RPMI-8226): 15.7 µM (inactive)
- GI50 (NCI/ADR-RES): 16.6 µM (inactive)
- GI50 (OVCAR-5): 44.4 µM (inactive)
- GI50 (KM12): 27.7 µM (inactive)
- GI50 (MDA-MB-435): 13.1 µM (inactive)
- GI50 (786-0): 34 µM (inactive)
- GI50 (CCRF-CEM): 22.5 µM (inactive)
- GI50 (SK-MEL-28): 20.1 µM (inactive)
- GI50 (NCI-H226): 19.1 µM (inactive)
- GI50 (PC-3): 18.3 µM (inactive)
- GI50 (NCI-H460): 19.1 µM (inactive)
- GI50 (HOP-62): 22.1 µM (inactive)
- GI50 (NCI-H522): 15.3 µM (inactive)
- GI50 (HOP-92): 19.1 µM (inactive)
- GI50 (U-251): 18.7 µM (inactive)
- GI50 (A549): 22.3 µM (inactive)
- GI50 (SW-620): 23.3 µM (inactive)
- GI50 (ACHN): 18.7 µM (inactive)
- GI50 (UO-31): 16 µM (inactive)
- GI50 (SNB-75): 15.1 µM (inactive)
- GI50 (T47D): 17.7 µM (inactive)
- GI50 (UACC-257): 17.9 µM (inactive)
- GI50 (A498): 17.4 µM (inactive)
- GI50 (OVCAR-8): 22.8 µM (inactive)
- GI50 (LOX IMVI): 18.2 µM (inactive)
- GI50 (SF-295): 19.3 µM (inactive)
- GI50 (IGROV-1): 20.8 µM (inactive)
- GI50 (RXF 393): 16.4 µM (inactive)
- GI50 (M14): 17.6 µM (inactive)
- GI50 (SK-OV-3): 15.5 µM (inactive)
- GI50 (MOLT-4): 17 µM (inactive)
- GI50 (SNB-19): 18.5 µM (inactive)
- GI50 (HL-60): 20.1 µM (inactive)
- GI50 (CAKI-1): 18.4 µM (inactive)
- GI50 (OVCAR-3): 20.5 µM (inactive)
- GI50 (Hs-578T): 5.14 µM (inactive)
- GI50 (SK-MEL-5): 17.1 µM (inactive)
- GI50 (MDA-MB-231): 17.1 µM (inactive)
- GI50 (NCI-H23): 17.7 µM (inactive)
- GI50 (EKVX): 10.8 µM (inactive)
- GI50 (K562): 11 µM (inactive)
- GI50 (SN12C): 22.9 µM (inactive)
- GI50 (HT-29): 19.6 µM (inactive)
- GI50 (TK-10): 18.5 µM (inactive)
- GI50 (COLO 205): 19.6 µM (inactive)
- GI50 (HCT-15): 14.4 µM
- GI50 (UACC-62): 13.9 µM (inactive)
- GI50 (HCC 2998): 19.6 µM (inactive)
- GI50 (BT-549): 18.5 µM (inactive)
